Test results: patent US5654427A, “Indolocarbazole derivatives to treat a pathological condition of the prostate” (Kyowa Hakko Kogyo Co., Ltd., priority 1995, dated 1997)

Biological target: T1, trkA (Rattus norvegicus, UniProt P35739)
T1 construct: are rat pheochromocytoma cells that bear trkA; host or cells: PC12 rat pheochromocytoma cells
Assay: inhibition of NGF-stimulated trk autophosphorylation (tyrosine phosphorylation) in PC12 cells, anti-phosphotyrosine Western blot; for trk 100 nM (inhibition of phosphorylation): key: +: Inhibited phosphorylation; -: Did not inhibit phosphorylation; for trk 500 nM (inhibition of phosphorylation): key: +: Inhibited phosphorylation; -: Did not inhibit phosphorylation
Assay type: cell-based
Settings: for trk 100 nM (inhibition of phosphorylation) / phosphorylation response (FIG. 1, spot): 100 nM compound; for trk 100 nM (inhibition of phosphorylation) / trk 500 nM (inhibition of phosphorylation): NGF 50 ng/ml; for trk 500 nM (inhibition of phosphorylation): 500 nM compound; for phosphorylation response (FIG. 1, spot): NGF, Western blot FIG. 1
Protocol: Candidate compounds for the inhibition of prostate cell proliferation were selected according to their ability to inhibit the tyrosine kinase activity associated with the trks.
PC12 cells (ATCC #CRL1721) are rat pheochromocytoma cells that bear trkA and differentiate into sympathetic neurons when treated with NGF. […] Cells were incubated at 37° C. in a humidified atmosphere of 10% CO2 and 90% air. […] The cells in each culture were disrupted and cell lysates were prepared by standard techniques known to those skilled in the art. Each lysate was incubated with anti-trk antibody whereby immune complexes were formed. […] The immune complexes were collected on Protein A-Sepharose beads, separated by SDS-polyacrylamide gel electrophoresis (SDS-PAGE), and transferred to polyvinylidene difluoride (PVDF) membranes (Millipore Corp., Bedford, Mass.), using techniques well known to those skilled in the art. The membranes were incubated with anti-phosphotyrosine antibody, which binds to the tyrosine phosphorylated trks, but not to the un-phosphorylated form of trks. Proteins bound to anti-phosphotyrosine antibody were visualized with enhanced chemiluminescence (ECL, Amersham), and are shown as dark "spots" in FIG. 1.
Measurement of the autophosphorylation of trk provides a good index of trk tyrosine kinase activity, and thereby of trk stimulation.
Inhibition was indicated by the absence of a spot migrating with the trk marker shown at the left side of the figure. Partial inhibition was indicated by a spot of reduced size.

T1 sequence (P35739 33-799): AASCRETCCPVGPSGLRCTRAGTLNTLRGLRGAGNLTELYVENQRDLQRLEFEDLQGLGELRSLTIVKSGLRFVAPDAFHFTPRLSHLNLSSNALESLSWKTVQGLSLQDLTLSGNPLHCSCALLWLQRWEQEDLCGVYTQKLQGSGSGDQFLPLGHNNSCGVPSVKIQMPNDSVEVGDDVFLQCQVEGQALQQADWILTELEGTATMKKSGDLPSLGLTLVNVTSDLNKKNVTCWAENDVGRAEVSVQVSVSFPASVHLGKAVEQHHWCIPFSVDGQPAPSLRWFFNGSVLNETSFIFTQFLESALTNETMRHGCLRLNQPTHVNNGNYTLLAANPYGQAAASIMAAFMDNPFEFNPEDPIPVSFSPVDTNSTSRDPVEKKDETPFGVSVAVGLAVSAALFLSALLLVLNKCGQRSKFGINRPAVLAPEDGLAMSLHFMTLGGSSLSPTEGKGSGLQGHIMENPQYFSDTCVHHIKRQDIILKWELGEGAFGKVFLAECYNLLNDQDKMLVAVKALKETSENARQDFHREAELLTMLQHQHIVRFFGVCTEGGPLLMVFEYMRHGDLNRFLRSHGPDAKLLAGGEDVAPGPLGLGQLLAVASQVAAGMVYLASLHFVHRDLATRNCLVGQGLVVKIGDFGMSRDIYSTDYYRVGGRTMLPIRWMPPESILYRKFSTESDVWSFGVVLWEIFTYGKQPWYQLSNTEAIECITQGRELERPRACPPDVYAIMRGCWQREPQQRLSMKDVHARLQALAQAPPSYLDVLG

Structure (SMILES) | trk 100 nM (inhibition of phosphorylation) | trk 500 nM (inhibition of phosphorylation) | phosphorylation response (FIG. 1, spot)
CC12OC(CC1O)n1c3ccccc3c3c4c(c5c6ccccc6n2c5c31)CNC4=O (centres unmarked) [Compound I-3] | + |  | 
CC1(C)OCC2(CC3OC2(C)n2c4ccccc4c4c5c(c6c7ccccc7n3c6c42)C(=O)NC5)O1 (centres unmarked) [Compound I-13] | + | + | 
CC12OC(CC1(O)CNC(=O)[C@@H]1CCCN1)n1c3ccccc3c3c4c(c5c6ccccc6n2c5c31)CNC4=O (some centres unmarked) [Compound I-17] | - | + | 
CC12OC(CC1(O)CNC(=O)[C@@H](N)CO)n1c3ccccc3c3c4c(c5c6ccccc6n2c5c31)CNC4=O (some centres unmarked) [Compound I-18] | + |  | 
COC(=O)C1(O)CC2OC1(C)n1c3ccccc3c3c4c(c5c6cc(Br)ccc6n2c5c31)C(=O)NC4 (centres unmarked) [Compound I-23] | - | + | 
COC(=O)C1(O)CC2OC1(C)n1c3ccccc3c3c4c(c5c6cc(NC(=O)Nc7ccccc7)ccc6n2c5c31)C(=O)NC4 (centres unmarked) [Compound I-27] | - | + | 
CC12OC(CC1(O)C(=O)Nc1ccccc1)n1c3ccccc3c3c4c(c5c6ccccc6n2c5c31)CNC4=O (centres unmarked) [Compound I-33] | - | + | 
CCNC(=O)Nc1ccc2c(c1)c1c3c(c4c5ccccc5n5c4c1n2C1CC(O)(C(=O)OC)C5(C)O1)CNC3=O (centres unmarked) [Compound I-34] | - | + | 
CCNC(=O)OCc1ccc2c(c1)c1c3c(c4c5ccccc5n5c4c1n2C1CC(O)(C(=O)OC)C5(C)O1)CNC3=O (centres unmarked) [Compound I-35] | + | + | 
CC12OC(CC1(O)CO)n1c3ccc(Br)cc3c3c4c(c5c6ccccc6n2c5c31)CNC4=O (centres unmarked) [Compound I-36] | + |  | 
COC(=O)Nc1ccc2c(c1)c1c3c(c4c5ccccc5n5c4c1n2C1CC(O)(C(=O)OC)C5(C)O1)CNC3=O (centres unmarked) [Compound I-37] | + |  | 
COC(=O)C1(O)CC2OC1(C)n1c3ccccc3c3c4c(c5c6cc(C)ccc6n2c5c31)C(=O)NC4 (centres unmarked) [Compound I-38] | + |  | 
COC(=O)C1(O)CC2OC1(C)n1c3ccc(Br)cc3c3c4c(c5c6cc(Br)ccc6n2c5c31)C(=O)NC4 (centres unmarked) [Compound I-39] | + |  | somewhat diminished (a smaller spot was seen)
CC12OC(CC1(O)C[S+]([O-])c1ccccn1)n1c3ccccc3c3c4c(c5c6ccccc6n2c5c31)CNC4=O (centres unmarked) [Compound I-40] | + |  | 
CCOCc1ccc2c(c1)c1c3c(c4c5ccccc5n5c4c1n2C1CC(O)(C(=O)OC)C5(C)O1)CNC3=O (centres unmarked) [Compound I-41] | + | + | 
CC12OC(CC1(O)C(=O)NCCO)n1c3ccc(Br)cc3c3c4c(c5c6cc(Br)ccc6n2c5c31)CNC4=O (centres unmarked) [Compound I-43] | - | + | 
COC(=O)C1(O)CC2OC1(C)n1c3ccc(Cl)cc3c3c4c(c5c6cc(Cl)ccc6n2c5c31)C(=O)NC4 (centres unmarked) [Compound I-44] | - | + | 
CC12OC(CC1=O)n1c3ccccc3c3c4c(c5c6ccccc6n2c5c31)CNC4=O (centres unmarked) [Compound I-52] | + |  | 
COC(=O)C1(OC)CC2OC1(C)n1c3ccccc3c3c4c(c5c6ccccc6n2c5c31)C(=O)NC4 (centres unmarked) [Compound I-53] | + |  | 
CC(=O)OC1(C(=O)NCC(C)C)CC2OC1(C)n1c3ccccc3c3c4c(c5c6ccccc6n2c5c31)C(=O)NC4 (centres unmarked) [Compound I-55] | + |  | 
CC12OC(CC1(O)CNC(=O)[C@@H](N)CCCCN)n1c3ccccc3c3c4c(c5c6ccccc6n2c5c31)CNC4=O (some centres unmarked) [Compound I-57] | + |  | 
COC(=O)C1(O)CC2OC1(C)n1c3ccccc3c3c4c(c5c6cc(C(Sc7ccccc7)Sc7ccccc7)ccc6n2c5c31)C(=O)NC4 (centres unmarked) [Compound I-58] | - | + | 
COC(=O)C1(O)CC2OC1(C)n1c3ccccc3c3c4c(c5c6cc(C7SCCS7)ccc6n2c5c31)C(=O)NC4 (centres unmarked) [Compound I-59] | - | + | 
COC(=O)C1(O)CC2OC1(C)n1c3ccccc3c3c4c(c5c6cc(CSc7ccccn7)ccc6n2c5c31)C(=O)NC4 (centres unmarked) [Compound I-60] | - | + | 
COC(=O)C1(O)CC2OC1(C)n1c3ccccc3c3c4c(c5c6cc(C=NNC7=NCCN7)ccc6n2c5c31)C(=O)NC4 (centres unmarked) [Compound I-61] | - | + | 
COC(=O)C1(O)CC2OC1(C)n1c3ccccc3c3c4c(c5c6cc(CSc7ncccn7)ccc6n2c5c31)C(=O)NC4 (centres unmarked) [Compound I-62] | + | + | 
COC(=O)C1(O)CC2OC1(C)n1c3ccccc3c3c4c(c5c6cc(C[S+]([O-])c7ncccn7)ccc6n2c5c31)C(=O)NC4 (centres unmarked) [Compound I-63] | - | + | 
COC(=O)C1(O)CC2OC1(C)n1c3ccccc3c3c4c(c5c6cc(C[S+]([O-])c7ccccn7)ccc6n2c5c31)C(=O)NC4 (centres unmarked) [Compound I-64] | - | + | 
CCSCc1ccc2c(c1)c1c3c(c4c5cc(CO)ccc5n5c4c1n2C1CC(O)(C(=O)OC)C5(C)O1)CNC3=O (centres unmarked) [Compound I-65] | - | + | 
CC[S+]([O-])Cc1ccc2c(c1)c1c3c(c4c5cc(C[S+]([O-])CC)ccc5n5c4c1n2C1CC(O)(C(=O)OC)C5(C)O1)CNC3=O (centres unmarked) [Compound I-66] | - | + | 

Next, values leading:

trk 100 nM (inhibition of phosphorylation) | trk 500 nM (inhibition of phosphorylation) | phosphorylation response (FIG. 1, spot) | Structure (SMILES)
+ | + |  | CC12OC(CC1(O)C(N)=O)n1c3ccccc3c3c4c(c5c6ccccc6n2c5c31)CNC4=O (centres unmarked) [Compound I-4]
+ |  |  | CC(=O)OCC1(O)CC2OC1(C)n1c3ccccc3c3c4c(c5c6ccccc6n2c5c31)C(=O)NC4 (centres unmarked) [Compound I-6]
+ |  | absent (no spot seen) | CC12OC(CC13CNC(=O)O3)n1c3ccccc3c3c4c(c5c6ccccc6n2c5c31)CNC4=O (centres unmarked) [Compound I-7]
+ |  | absent (no spot seen) | CCNC(=O)C1(O)CC2OC1(C)n1c3ccccc3c3c4c(c5c6ccccc6n2c5c31)C(=O)NC4 (centres unmarked) [Compound I-9]
+ |  |  | CCCNC(=O)C1(O)CC2OC1(C)n1c3ccccc3c3c4c(c5c6ccccc6n2c5c31)C(=O)NC4 (centres unmarked) [Compound I-10]
+ |  |  | CC12OC(CC1(O)C(=O)N1CCOCC1)n1c3ccccc3c3c4c(c5c6ccccc6n2c5c31)CNC4=O (centres unmarked) [Compound I-11]
+ |  |  | CC12OC(CC1(O)C=NNC(N)=O)n1c3ccccc3c3c4c(c5c6ccccc6n2c5c31)CNC4=O (centres unmarked) [Compound I-14]
- | + |  | CC12OC(CC1(O)CN=[N+]=[N-])n1c3ccccc3c3c4c(c5c6ccccc6n2c5c31)CNC4=O (centres unmarked) [Compound I-21]
+ |  |  | CC(=O)NCC1(O)CC2OC1(C)n1c3ccccc3c3c4c(c5c6ccccc6n2c5c31)C(=O)NC4 (centres unmarked) [Compound I-24]
+ |  |  | CN(C)C(=O)C1(O)CC2OC1(C)n1c3ccccc3c3c4c(c5c6ccccc6n2c5c31)C(=O)NC4 (centres unmarked) [Compound I-25]
+ |  |  | CC12OC(CC1(O)C(=O)NO)n1c3ccccc3c3c4c(c5c6ccccc6n2c5c31)CNC4=O (centres unmarked) [Compound I-26]
+ |  |  | CC12OC(CC1(O)C=NO)n1c3ccccc3c3c4c(c5c6ccccc6n2c5c31)CNC4=O (centres unmarked) [Compound I-28]
- | + |  | CC12OC(CC1(O)C=NNC(=N)N)n1c3ccccc3c3c4c(c5c6ccccc6n2c5c31)CNC4=O (centres unmarked) [Compound I-29]
- | + |  | CC12OC(CC1(O)C=NNC1=NCCN1)n1c3ccccc3c3c4c(c5c6ccccc6n2c5c31)CNC4=O (centres unmarked) [Compound I-30]
+ |  |  | COC(=O)CC1(O)CC2OC1(C)n1c3ccccc3c3c4c(c5c6ccccc6n2c5c31)C(=O)NC4 (centres unmarked) [Compound I-31]
+ |  |  | CC12OC(CC1(O)CNC(=O)CN)n1c3ccccc3c3c4c(c5c6ccccc6n2c5c31)CNC4=O (centres unmarked) [Compound I-32]
+ |  |  | CNC(=O)C1(O)CC2OC1(C)n1c3ccccc3c3c4c(c5c6ccccc6n2c5c31)C(=O)NC4 (centres unmarked) [Compound I-54]
 | + |  | CSCC1(O)CC2OC1(C)n1c3ccccc3c3c4c(c5c6ccccc6n2c5c31)C(=O)NC4 (centres unmarked) [Compound I-56]
